From the NIST ThermoML archive (doi:10.1016/j.jct.2008.05.017)

Experiment: xn = mol fraction of the nth substance listed
Settings: Liquid; for mass density: Bellows volumetry; for Critical density: bellows voluometer

N [ammonia] + O
Settings | mass density [kg/m3]
436.56 K, 14191 kPa, x1 = 0.9098 | 263.5
436.56 K, 14208 kPa, x1 = 0.9098 | 264.8
436.56 K, 14217 kPa, x1 = 0.9098 | 265.4
436.56 K, 14225 kPa, x1 = 0.9098 | 265.9
478.58 K, 17311 kPa, x1 = 0.7757 | 284.3
478.58 K, 17320 kPa, x1 = 0.7757 | 284.7
478.58 K, 17329 kPa, x1 = 0.7757 | 285.1
478.58 K, 17347 kPa, x1 = 0.7757 | 285.8
503.06 K, 18697 kPa, x1 = 0.6808 | 294.8
503.06 K, 18706 kPa, x1 = 0.6808 | 295.2
503.06 K, 18715 kPa, x1 = 0.6808 | 295.6
503.06 K, 18724 kPa, x1 = 0.6808 | 296
503.06 K, 18733 kPa, x1 = 0.6808 | 296.3
503.06 K, 18743 kPa, x1 = 0.6808 | 296.6
503.06 K, 18751 kPa, x1 = 0.6808 | 297

Settings | Critical density [kg/m3]
x1 = 0.6808 | 294.6
x1 = 0.7757 | 284
x1 = 0.9098 | 262.9
